Data published in patent US11753408B2, “Compounds and method for blocking transmission of malarial parasite” (The United States of America, as represented by the …, priority 2016, dated 2023).

Columns and labels:
[1] = test system: Asexual parasites of P. falciparum strain 3D7; assay: In vitro drug activity on asexual parasites (SYBR Green assay); assay type: cell-based, Plasmodium falciparum
Experimental: Cell culture. Asexual parasites of P. falciparum strain 3D7 were cultured as described previously [Trager W, et al., Journal of Parasitology 2005, 91: 484-486], Stage III-V gametocytes were selected and enriched with 3-day treatment with 50 mM N-acetylglucosamine (NAG) and the following Percoll density gradient centrifugation after gametocyte production [Tanaka T Q, et al., Molecular and Biochemical Parasitology, 2011, 111: 160-163], Gametocytes of HB3 and Dd2 strains were produced and then set up for assay in a similar process. HepG2 cells (ATCC, cat. no. 77400) were cultured in 175-cm^2 tissue culture flasks with 30 ml growth medium at 37° C. in a 5% CO2 humidified atmosphere. Growth medium was made with Dulbecco's Modified Eagle Medium with 10% fetal bovine serum (FBS). Growth medium was replaced every other day and cells were passed at 75% confluence.
Asexual parasites of P. falciparum strain 3D7 were cultured as described previously (Trager, W. et al., J. Parasitol. 2005, 91(3): 484-486). Drug activity on asexual stage parasites was tested using a SYBR Green assay as described previously (Eastman, R. T. et al., Antimicrob. Agents Chemother. 2013, 57(1): 425-435; Smilkstein, M. et al., Antimicrob. Agents Chemother. 2004, 48(5): 1803-1806). Briefly, parasites were diluted to 0.5% parasitemia in complete culture medium with 2% hematocrit and drugs diluted in DMSO (≤0.5%) and were loaded into a 96-well plate (200 μl/well). No drug and RBC alone wells were included as positive and background controls, respectively, and each testing condition was examined in duplicated. After 72 h incubation under the standard culture condition and a freeze-thaw lysis step at −80° C. and room temperature, 100 μl/well of lysis buffer containing SYBR Green I was added to the parasite culture and incubated for 30 min at room temperature. The fluorescence of each well was measured at 520 nm following excitation at 490 nm using a FLUOstar Optima™ microplate reader (BMG Labtech).

[2] = target: mTOR (Homo sapiens, UniProt P42345); assay: mTOR activity (no method described); assay type: biochemical
[3] = Microsomal stability (rat); assay type: in vitro ADME; conditions: rat microsomes
[4] = Solubility at pH 7.4; assay type: physicochemical
[5] = PAMPA permeability; assay type: in vitro ADME

EC50 [1] [nM]	mTOR [2]	Microsomal Stability (rat) T1/2 [3] [min]	Sol @ pH 7.4 [4] [ug/mL]	PAMPA Permeability [5] [×10⁻⁶ cm/s]	SMILES
37.3	1.291 µM	>30	11.4	7.8	O=C(NC1CCNC1)c1ccc(-n2c(=O)ccc3cnc4ccc(-c5ccc(Cl)cc5)cc4c32)cc1 (stereo not drawn) [Compound 96]
33	4.415 µM	>30	<1	54.2	O=C(NC1CC1)c1ccc(-n2c(=O)ccc3cnc4ccc(-c5ccc(F)cc5)cc4c32)cc1 [Compound 91]
178	0.7638 µM	6.3	<1	492	O=C(NCCN1CCOCC1)c1ccc(-n2c(=O)ccc3cnc4ccc(-c5ccc(Cl)cc5)cc4c32)cc1 [Compound 215]
–	100 µM	18	<1	85.9	CC(C)(C)c1ccc(-c2ccc3ncc4ccc(=O)n(-c5ccc(C(=O)N6CCOCC6)cc5)c4c3c2)cc1 [Compound 196]
18.8	0.3394 µM	21.2	<1	333	O=C(NCCCO)c1ccc(-n2c(=O)ccc3cnc4ccc(-c5ccc(Cl)cc5)cc4c32)cc1 [Compound 214]
130	1.299 µM	18.9	<1	< 1	CC(C)NC(=O)c1ccc(-n2c(=O)ccc3cnc4ccc(-c5ccc(Cl)cc5)cc4c32)cc1 [Compound 213]
71.4	4.536 µM	4.1	>86	598	Cc1cc(C(=O)NCCCN2CCN(C)CC2)ccc1-n1c(=O)ccc2cnc3ccc(-c4ccc(Cl)cc4)cc3c21 [Compound 282]
65.9	21.75 µM	13.2	35.5	248	CN(C)C(=O)c1ccc(-n2c(=O)ccc3c[n+]([O-])c4ccc(-c5ccc(Cl)cc5)cc4c32)cc1 [Compound 208]
3660	0.3646 µM	>30	30.8	11	Cn1c(=O)n(-c2ccc(C(=O)O)cc2)c2c3cc(-c4ccc(Cl)cc4)ccc3ncc21 [Compound 435]
50.5	1.317 µM	15.8	>84	49.1	Cc1cc(C(=O)NC2CCN(CCO)CC2)ccc1-n1c(=O)ccc2cnc3ccc(-c4ccc(Cl)cc4)cc3c21 [Compound 279]
477	18.6 µM	7.1	0	510	Cc1cc(C(=O)NCCN2CCCC2)ccc1-n1c(=O)ccc2cnc3ccc(-c4ccc(F)cc4)cc3c21 [Compound 296]
52.1	2.689 µM	>30	<1	< 1	O=C(NCC(F)(F)F)c1ccc(-n2c(=O)ccc3cnc4ccc(-c5ccc(Cl)cc5)cc4c32)cc1 [Compound 89]
211	4.975 µM	3.1	0	773	Cc1cc(C(=O)NCCN2CCCCC2)ccc1-n1c(=O)ccc2cnc3ccc(-c4ccc(Cl)cc4)cc3c21 [Compound 291]
144	15.14 µM	>30	46.4	208	CN(C)CC#Cc1ccc2ncc3c(c2c1)n(-c1cccc(C#N)c1)c(=O)n3C [Compound 396]
1620	17.28 µM	12.6	<1	13.8	CC(C)c1ccc(-c2ccc3ncc4ccc(=O)n(-c5ccc(C(=O)N6CCOCC6)cc5)c4c3c2)cc1 [Compound 201]
2220	18.92 µM	1.4	<1	874	Cc1nc2ccc(-c3ccc(Cl)cc3)cc2c2c1ccc(=O)n2-c1ccc(C(=O)N2CCOCC2)cc1 [Compound 234]
1140	15.56 µM	1.7	0	3.4	Cc1cc(C(=O)NCCN(C)c2ccccc2)ccc1-n1c(=O)ccc2cnc3ccc(-c4ccc(Cl)cc4)cc3c21 [Compound 292]
206	3.012 µM	>30	53.1	5.7	COc1cc(C(=O)NC2CCN(CCO)CC2)ccc1-n1c(=O)ccc2cnc3ccc(-c4ccc(Cl)cc4)cc3c21 [Compound 254]
53.7	11.77 µM	2.4	35.6	863	CC1CCN(CCCNC(=O)c2ccc(-n3c(=O)ccc4cnc5ccc(-c6ccc(Cl)cc6)cc5c43)cc2)CC1 [Compound 286]
3880	43.09 µM	>30	>83	227	O=C(c1ccc(-n2c(=O)ccc3cnc4ccc(-c5cccc(CCN6CCCC6)c5)cc4c32)cc1)N1CCOCC1 [Compound 211]
182	12.95 µM	2.3	>88	1040	COc1cc(C(=O)NCCCN2CCC(C)CC2)ccc1-n1c(=O)ccc2cnc3ccc(-c4ccc(Cl)cc4)cc3c21 [Compound 255]
162	23.74 µM	10.6	0	639	Cc1cc(C(=O)NCCN2CCCC2)ccc1-n1c(=O)ccc2cnc3ccc(-c4ccc(Cl)cc4)cc3c21 [Compound 295]
77800	inactive	>30.0	>80.0	3	O=C(O)c1cc(Cl)ccc1-c1ccc2ncc3ccc(=O)n(-c4ccc(C(=O)N5CCOCC5)cc4)c3c2c1 [Compound 135]
17.2	0.5128 µM	29.3	1.2	750	O=C(NC1CC1)c1ccc(-n2c(=O)ccc3cnc4ccc(-c5ccc(F)c(O)c5)cc4c32)cc1 [Compound 203]
576	14.76 µM	7.9	>82	1070	CCN(CC)CCNC(=O)c1ccc(-n2c(=O)ccc3cnc4ccc(-c5ccc(Cl)cc5)cc4c32)c(OC)c1 [Compound 249]
74.1	19.84 µM	>30	13.6	802	CN(C)CCNC(=O)c1ccc(-n2c(=O)ccc3cnc4ccc(-c5ccc(Cl)cc5)cc4c32)cc1 [Compound 90]
45.5	1.504 µM	22.2	<1	133	COc1cc(-c2ccc3ncc4ccc(=O)n(-c5ccc(C(=O)NC6CC6)cc5)c4c3c2)ccc1Cl [Compound 221]
531	17.83 µM	>30	>83	130	O=C(c1ccc(-n2c(=O)ccc3cnc4ccc(-c5ccc(CCN6CCCC6)cc5)cc4c32)cc1)N1CCOCC1 [Compound 217]
60	15.37 µM	–	7.2	1070	CNCc1cc(-n2c(=O)ccc3cnc4ccc(-c5ccc(Cl)cc5)cc4c32)ccc1C(=O)N1CCOCC1 [Compound 200]
177	1.061 µM	–	2.2	456	COc1cc(C(=O)NC2CC2)ccc1-n1c(=O)ccc2cnc3ccc(-c4ccc(C5(N)CC5)cc4)cc3c21 [Compound 205]
